Source: US10865186B2, “Opioid agonists and uses thereof” (Nektar Therapeutics, priority 2013, dated 2020)
Where two headings read alike, the source gives them in different places.

System: Swiss Albino or CD-1 male mice
Test: Acetic acid writhing (AAW) analgesic assay
Assay type: in vivo, mouse
Settings: for inhibition in vivo at 30 mg/kg: Mus musculus, 20 min, read-out: AAW % Efficacy
Procedure: Approaches for evaluating analgesic activity of a compound of the present invention in vivo include a “writhing test.” Briefly, the compound to be tested is administered [by, for example, injection (e.g., subcutaneous injection)] to the mouse. Thereafter, a 0.5% acetic acid solution is administered (i.p.) to a mouse and the numbers of writhing responses are counted for twenty minutes. Antinociception is quantified as reduction in the number of writhes respective to vehicle.
An analgesic assay was used to determine whether a given compound can reduce and/or prevent visceral pain in mice. The assay utilizes Swiss Albino or CD-1 male mice (5-10 mice per group), each mouse being approximately 0.015-0.030 kg on the study day. Mice were treated according to standard protocols.
The animal was given an intraperitoneal (IP) injection of an irritant (acetic acid) that induces “writhing” which may include: contractions of the abdomen, twisting and turning of the trunk, arching of the back and the extension of the hindlimbs. Mice are given a single IP injection (0.1 mL/10 g bodyweight) of a 0.5% acetic acid solution. After the injection the animals were returned to their observation enclosure and their behavior was observed. Contractions were counted between 0 and 20 minutes after the injection. The animals were used once. In certain instances, the test articles were administered at multiple doses to determine a dose response curve.
Table 4 provides the results for certain compounds of the present invention that were administered subcutaneously. Table 5 provides the results for certain compounds of the present invention that were administered orally.

C[C@H]1[C@H]2C(=O)c3ccc(Nc4ccc(NCCOCCOCCOCCOCCOC(F)(F)F)cc4)cc3[C@]1(C)CCN2CC1CC1 [Compound 20, (2S,6R,11R)-3-(cyclopropylmethyl)-6,11-dimethyl-8-((4-((1,1,1-trifluoro-2,5,8,11,14-pentaoxahexadecan-16-yl)amino)phenyl)amino)-3,4,5,6-tetrahydro-2,6-methanobenzo[d]azocin-1(2H)-one]
inhibition in vivo at 30 mg/kg (oral): 100%

COCCOCCOCCOCCOCCNc1cccc(Nc2ccc3c(c2)[C@]2(C)CCN(CC4CC4)[C@H](C3=O)[C@@H]2C)c1 [Compound 11, (2S,6R,11R)-8-((3-(2,5,8,11,14-pentaoxahexadecan-16-ylamino)phenyl)amino)-3-(cyclopropylmethyl)-6,11-dimethyl-3,4,5,6-tetrahydro-2,6-methanobenzo[d]azocin-1(2H)-one]
inhibition in vivo at 30 mg/kg (sc, subcutaneous): 100%

COCCOCCOCCOCCOCCOc1cccc(Nc2ccc3c(c2)[C@]2(C)CCN(CC4CC4)[C@H](C3=O)[C@@H]2C)c1 [Compound 8, (2S,6R,11R)-8-((3-(2,5,8,11,14-pentaoxahexadecan-16-yloxy)phenyl)amino)-3-(cyclopropylmethyl)-6,11-dimethyl-3,4,5,6-tetrahydro-2,6-methanobenzo[d]azocin-1(2H)-one]
AAW % Efficacy (subcutaneous, 30 mg/kg): 100.0%
